Converted amounts (≈) assume the structure as drawn. One block for each compound: values may come before it.
Key:
Type in all cases: functional
Lactococcus lactis = test: Antibacterial activity against Lactococcus lactis MG1614 by agar diffusion assay
Micrococcus luteus = test: Antibacterial activity against Micrococcus luteus […] 8166 by agar diffusion assay
Enterococcus faecalis [1] = test: Antibacterial activity against Enterococcus faecalis ATCC 29212 by microdilution method
Enterococcus faecalis [2] = test: Antibacterial activity against Enterococcus faecalis ATCC 51299 by microdilution method
Kocuria rhizophila [3] = test: Antibacterial activity against Micrococcus luteus ATCC 9341 by microdilution method
Staphylococcus aureus [4] = test: Antibacterial activity against Staphylococcus aureus ATCC 29213 by microdilution method
Staphylococcus aureus [5] = test: Antibacterial activity against methicillin-resistant Staphylococcus aureus ATCC 43300 by microdilution method
Bacillus cereus = test: Antibacterial activity against Bacillus cereus RFB125 after 24 hrs by microdilution method; details: RFB125, 24 h
Priestia megaterium = test: Antibacterial activity against Bacillus megaterium RFB124 after 24 hrs by microdilution method; details: RFB124, 24 h
Bacillus spizizenii = test: Antibacterial activity against Bacillus subtilis ATCC 6633 after 24 hrs by microdilution method; details: ATCC 6633, 24 h
Enterococcus faecalis [6] = test: Antibacterial activity against Enterococcus faecalis ATCC 29212 after 24 hrs by microdilution method; details: ATCC 29212, 24 h
Enterococcus faecium = test: Antibacterial activity against Enterococcus faecium RFB128 after 24 hrs by microdilution method; details: RFB128, 24 h
Listeria innocua = test: Antibacterial activity against Listeria innocua ATCC 33090 after 24 hrs by microdilution method; details: ATCC 33090, 24 h
Listeria monocytogenes [7] = test: Antibacterial activity against Listeria monocytogenes LMG 21263 after 24 hrs by microdilution method; details: LMG 21263, 24 h
Listeria monocytogenes [8] = test: Antibacterial activity against Listeria monocytogenes LMG 23905 after 24 hrs by microdilution method; details: LMG 23905, 24 h
Kocuria rhizophila [9] = test: Antibacterial activity against Micrococcus luteus ATCC 9341 after 24 hrs by microdilution method
Staphylococcus aureus [10] = test: Antibacterial activity against Staphylococcus aureus ATCC 25923 after 24 hrs by microdilution method; details: ATCC 25923, 24 h
Staphylococcus aureus [11] = test: Antibacterial activity against methicillin-resistant Staphylococcus aureus ATCC 43300 after 24 hrs by microdilution method; details: ATCC 43300, 24 h
Staphylococcus aureus [12] = test: Antibacterial activity against Staphylococcus aureus RFB127 after 24 hrs by microdilution method; details: RFB127, 24 h
[13] = test system: Staphylococcus epidermidis; test: Antibacterial activity against Staphylococcus epidermidis ATCC 1228 after 24 hrs by microdilution method; details: ATCC 1228, 24 h
Streptococcus agalactiae = test: Antibacterial activity against Streptococcus agalactiae RFB141 after 24 hrs by microdilution method; details: RFB141, 24 h

- MIC (Lactococcus lactis): 0.301 µM (≈ 1 µg/mL)
- MIC (Micrococcus luteus): 0.0151 µM (≈ 0.0501 µg/mL)
SMILES: C=C(NC(=O)[C@H](NC(=O)[C@@H](CCCCN)NC(=O)[C@@H]1CSC(C)C2NC(=O)[C@@H](CC(C)C)NC(=O)C(NC(=O)[C@H](CCC(N)=O)NC(=O)[C@H](CC(C)C)NC(=O)[C@H](Cc3ccccc3)NC(=O)[C@@H]3CSC(C)C(NC(=O)[C@H](NC(=O)[C@@H]4CSC(C)C(NC(=O)[C@H]5CSC[C@H](NC(=O)[C@H](CCCCN)NC(=O)[C@@H](N)Cc6c[nH]c7ccccc67)C(=O)N[C@@H](CCC(=O)O)C(=O)NC(=C)C(=O)N[C@@H](CC(C)C)C(=O)N5)C(=O)N5CCC[C@@H]5C(=O)NCC(=O)N4)C(C)C)C(=O)NCC(=O)N[C@@H](C)C(=O)N[C@@H](CC(C)C)C(=O)N[C@@H](CCC(N)=O)C(=O)N/C(=C\C)C(=O)N3)C(C)SC[C@@H](NC2=O)C(=O)N[C@H](CC(N)=O)C(=O)N1)[C@H](C)CC)C(=O)N[C@@H](CCCCN)C(=O)O (stereo partly specified)

SMILES: C=C(NC(=O)[C@H](NC(=O)[C@@H](CCCCN)NC(=O)[C@@H]1CSC(C)C2NC(=O)[C@@H]([C@H](C)CC)NC(=O)C(NC(=O)[C@@H](CCC(N)=O)NC(=O)[C@@H](CC(C)C)NC(=O)[C@@H](Cc3ccccc3)NC(=O)[C@@H]3CSC(C)C(NC(=O)[C@H](NC(=O)[C@@H]4CSC(C)C(NC(=O)[C@H]5CSC[C@@H](NC(=O)[C@@H](CCCCN)NC(=O)[C@H](N)Cc6c[nH]c7ccccc67)C(=O)N[C@H](CCC(=O)O)C(=O)NC(=C)C(=O)N[C@H](C(C)C)C(=O)N5)C(=O)N5CCC[C@@H]5C(=O)NCC(=O)N4)C(C)C)C(=O)NCC(=O)N[C@@H](CC(C)C)C(=O)N[C@@H](CC(C)C)C(=O)N[C@H](CCC(N)=O)C(=O)N/C(=C\C)C(=O)N3)C(C)SC[C@@H](NC2=O)C(=O)N[C@H](CC(N)=O)C(=O)N1)[C@H](C)CC)C(=O)N[C@@H](CCCCN)C(=O)O (stereo partly specified)
- MIC (Enterococcus faecalis [1]): 4.84 µM (≈ 16.2 µg/mL)
- MIC (Enterococcus faecalis [2]): 2.32 µM (≈ 7.77 µg/mL)
- MIC (Kocuria rhizophila [3]): 1.16 µM (≈ 3.89 µg/mL)
- MIC (Staphylococcus aureus [4]): 1.16 µM (≈ 3.89 µg/mL)
- MIC (Staphylococcus aureus [5]): 2.32 µM (≈ 7.77 µg/mL)

SMILES: C/C=C(\NC(=O)[C@H](Cc1cnc[nH]1)NC(=O)/C(=C/C)NC(=O)[C@@H]1CCCN1C(=O)[C@@H]1CSC[C@@H]2NC(=O)[C@H](CC(C)C)NC(=O)[C@@H](NC(=O)[C@H]3CSC[C@@H](NC(=O)[C@@H](NC(=O)CNC(=O)[C@H](CCCNC(=N)N)NC(=O)[C@H](CCC(N)=O)NC(=O)[C@H](CCC(=O)O)NC(=O)[C@H](C)N)[C@H](C)CC)C(=O)N[C@@H](CCC(N)=O)C(=O)NCC(=O)N[C@H](CC(N)=O)C(=O)N[C@H](CC(=O)O)C(=O)NCC(=O)N[C@H](CCCCN)C(=O)N[C@@H](CC(C)C)C(=O)N3)CSC[C@@H](NC(=O)[C@H](CCC(=O)O)NC(=O)[C@H](Cc3c[nH]c4ccccc34)NC2=O)C(=O)NCC(=O)N[C@@H](CC(C)C)C(=O)N1)C(=O)N[C@@H](CS)C(=O)N[C@H](Cc1c[nH]c2ccccc12)C(=O)N[C@H](CS)C(=O)O
- MIC (Bacillus cereus): 0.2 µM (≈ 0.659 µg/mL)
- MIC (Priestia megaterium): 0.4 µM (≈ 1.32 µg/mL)
- MIC (Bacillus spizizenii): 1.4 µM (≈ 4.61 µg/mL)
- MIC (Enterococcus faecalis [6]): 1.4 µM (≈ 4.61 µg/mL)
- MIC (Enterococcus faecium): 0.1 µM (≈ 0.329 µg/mL)
- MIC (Listeria innocua): 0.7 µM (≈ 2.31 µg/mL)
- MIC (Listeria monocytogenes [7]): 0.5 µM (≈ 1.65 µg/mL)
- MIC (Listeria monocytogenes [8]): 0.4 µM (≈ 1.32 µg/mL)
- MIC (Kocuria rhizophila [9]): 0.7 µM (≈ 2.31 µg/mL)
- MIC (Staphylococcus aureus [10]): 2.8 µM (≈ 9.22 µg/mL)
- MIC (Staphylococcus aureus [11]): 0.4 µM (≈ 1.32 µg/mL)
- MIC (Staphylococcus aureus [12]): 1.4 µM (≈ 4.61 µg/mL)
- MIC [13]: 2.8 µM (≈ 9.22 µg/mL)
- MIC (Streptococcus agalactiae): 2.8 µM (≈ 9.22 µg/mL)
